BindingDB's records for doi:10.1021/jm050825p (National Institute of Allergy and Infectious Diseases, 2006)
pIC50: −log10 of the molar value.

What was measured:
[1] = biological target: T1, 3-oxoacyl-[acyl-carrier-protein] synthase 3 (Escherichia coli, UniProt C3TDZ2); experiment: Inhibitory activity against FabH from Escherichia coli ANSI
T1 sequence (C3TDZ2 whole entry): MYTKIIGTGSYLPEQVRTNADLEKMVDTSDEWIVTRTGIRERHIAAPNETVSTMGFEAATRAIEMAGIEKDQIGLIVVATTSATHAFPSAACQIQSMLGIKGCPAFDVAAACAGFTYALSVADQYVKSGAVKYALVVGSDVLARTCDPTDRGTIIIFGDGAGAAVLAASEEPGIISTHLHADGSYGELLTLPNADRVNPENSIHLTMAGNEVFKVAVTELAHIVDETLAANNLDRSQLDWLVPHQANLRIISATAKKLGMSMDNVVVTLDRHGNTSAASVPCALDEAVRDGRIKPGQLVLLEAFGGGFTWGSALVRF

[2] = biological target: T2, 3-oxoacyl-[acyl-carrier-protein] synthase 2 (Mycobacterium tuberculosis (strain ATCC 25618 / H37Rv), UniProt P9WQD7); experiment: Inhibitory activity against KasB from Mycobacterium tuberculosis H37Rv
T2 sequence (P9WQD7 whole entry): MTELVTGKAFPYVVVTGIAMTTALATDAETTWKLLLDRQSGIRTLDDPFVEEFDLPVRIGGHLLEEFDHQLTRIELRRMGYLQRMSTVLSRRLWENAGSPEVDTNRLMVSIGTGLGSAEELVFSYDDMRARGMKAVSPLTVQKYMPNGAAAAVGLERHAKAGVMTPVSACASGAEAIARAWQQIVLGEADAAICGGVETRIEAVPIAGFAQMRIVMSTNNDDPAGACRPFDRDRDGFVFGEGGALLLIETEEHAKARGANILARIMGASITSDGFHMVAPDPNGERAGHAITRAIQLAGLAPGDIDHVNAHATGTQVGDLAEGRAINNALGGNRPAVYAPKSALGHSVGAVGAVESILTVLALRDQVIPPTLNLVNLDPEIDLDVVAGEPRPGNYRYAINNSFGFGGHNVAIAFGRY

[3] = biological target: T3, 3-oxoacyl-[acyl-carrier-protein] synthase 3 (Mycobacterium tuberculosis (strain ATCC 25618 / H37Rv), UniProt P9WNG3); experiment: Inhibitory activity against FabH from Mycobacterium tuberculosis H37Rv
T3 sequence (P9WNG3 whole entry): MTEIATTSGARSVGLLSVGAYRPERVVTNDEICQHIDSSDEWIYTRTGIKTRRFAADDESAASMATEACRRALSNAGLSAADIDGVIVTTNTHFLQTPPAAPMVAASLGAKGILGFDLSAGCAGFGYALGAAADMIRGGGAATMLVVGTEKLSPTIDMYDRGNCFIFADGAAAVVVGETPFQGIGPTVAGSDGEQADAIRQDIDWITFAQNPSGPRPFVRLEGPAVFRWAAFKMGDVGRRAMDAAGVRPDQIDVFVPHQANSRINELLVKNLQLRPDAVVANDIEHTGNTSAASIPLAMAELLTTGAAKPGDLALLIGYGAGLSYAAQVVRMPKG

[4] = biological target: T4, 3-oxoacyl-[acyl-carrier-protein] synthase 1 (Escherichia coli (strain K12), UniProt P0A953); experiment: Inhibitory activity against FabB from Escherichia coli ANSI
T4 sequence (P0A953 whole entry): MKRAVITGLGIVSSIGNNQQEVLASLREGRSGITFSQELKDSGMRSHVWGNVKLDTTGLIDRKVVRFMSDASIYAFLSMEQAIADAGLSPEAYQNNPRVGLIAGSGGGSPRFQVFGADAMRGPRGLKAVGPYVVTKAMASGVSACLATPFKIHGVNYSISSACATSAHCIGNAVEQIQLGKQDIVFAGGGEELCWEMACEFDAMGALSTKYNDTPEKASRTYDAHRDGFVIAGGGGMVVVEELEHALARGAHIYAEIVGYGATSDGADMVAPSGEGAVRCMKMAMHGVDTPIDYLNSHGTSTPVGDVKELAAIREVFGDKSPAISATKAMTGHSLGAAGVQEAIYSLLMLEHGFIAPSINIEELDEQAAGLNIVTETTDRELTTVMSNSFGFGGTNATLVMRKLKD

| Compound | pIC50 [1] | pIC50 [2] | pIC50 [3] | pIC50 [4] |
| --- | --- | --- | --- | --- |
| CCCCCC(C)C1(C)SC(=O)C(C)C1=O (stereo not given) [3,5-dimethyl-4-hydroxy-5-(1-methylhexyl)-5H-thiophen-2-one] | < 3.00 | < 3.00 | < 3.00 | < 3.00 |
| CCC(C)C1(C)SC(=O)C(C)C1=O (stereo not given) [3,5-dimethyl-4-hydroxy-5-(1-methylpropyl)-5H-thiophen-2-one] |  |  | < 4.00 |  |
| CC1C(=O)SC(C)(C(C)c2ccccc2)C1=O (stereo not given) [3,5-dimethyl-4-hydroxy-5-(1-phenylethyl)-5H-thiophen-2-one] | < 3.00 | < 3.00 | < 3.00 | < 3.00 |
| Cc1cc(C)c(CC2(C)SC(=O)C(C)C2=O)c(C)c1 (stereo not given) [3,5-dimethyl-4-hydroxy-5-(2,4,6-trimethylbenzyl)-5H-thiophen-2-one] | < 3.00 | < 3.00 | < 3.00 | < 3.00 |
| COc1ccccc1CC1(C)SC(=O)C(C)C1=O (stereo not given) [3,5-dimethyl-4-hydroxy-5-(2-methoxybenzyl)-5H-thiophen-2-one] | < 3.00 | < 3.00 | < 4.00 | < 3.00 |
| Cc1ccccc1CC1(C)SC(=O)C(C)C1=O (stereo not given) [3,5-dimethyl-4-hydroxy-5-(2-methylbenzyl)-5H-thiophen-2-one] | < 3.00 | < 3.00 | < 3.00 | < 3.00 |
| Cc1cccc(CC2(C)SC(=O)C(C)C2=O)c1 (stereo not given) [3,5-dimethyl-4-hydroxy-5-(3-methylbenzyl)-5H-thiophen-2-one] | < 3.00 | < 3.00 | < 3.00 | < 3.00 |
| CC(C)CCC1(C)SC(=O)C(C)C1=O (stereo not given) [3,5-dimethyl-4-hydroxy-5-(3-methylbutyl)-5H-thiophen-2-one] | < 3.00 | < 3.00 | < 3.00 | < 3.00 |
| CC1C(=O)SC(C)(CCCc2ccccc2)C1=O (stereo not given) [3,5-dimethyl-4-hydroxy-5-(3-phenylpropyl)-5H-thiophen-2-one] | < 3.00 | < 3.00 | < 3.00 | < 3.00 |
| CC1C(=O)SC(C)(Cc2cccc(C(F)(F)F)c2)C1=O (stereo not given) [3,5-dimethyl-4-hydroxy-5-(3-trifluoromethylbenzyl)-5H-thiophen-2-one] | < 3.00 | < 3.00 | < 3.00 | < 3.00 |
| Cc1ccc(CC2(C)SC(=O)C(C)C2=O)cc1 (stereo not given) [3,5-dimethyl-4-hydroxy-5-(4-methylbenzyl)-5H-thiophen-2-one] | < 3.00 | < 3.00 | < 3.00 | < 3.00 |
| CC1C(=O)SC(C)(Cc2ccc([N+](=O)[O-])cc2)C1=O (stereo not given) [3,5-dimethyl-4-hydroxy-5-(4-nitrobenzyl)-5H-thiophen-2-one] | < 3.00 | < 3.00 | < 3.00 | < 3.00 |
| CC1C(=O)SC(C)(Cc2ccc(C(F)(F)F)cc2)C1=O (stereo not given) [3,5-dimethyl-4-hydroxy-5-(4-trifluoromethylbenzyl)-5H-thiophen-2-one] |  |  | < 4.00 |  |
| CC/C=C/CC1(C)SC(=O)C(C)C1=O (stereo not given) [3,5-dimethyl-4-hydroxy-5-((E)-pent-2-enyl)-5H-thiophen-2-one] | < 3.00 | < 3.00 | < 3.00 | < 3.00 |
| CC[C@H](C)CC1(C)SC(=O)C(C)C1=O (stereo partly drawn) [3,5-dimethyl-4-hydroxy-5-((S)2-methylbutyl)-5H-thiophen-2-one] | < 4.00 |  |  |  |
| CC1C(=O)SC(C)(Cc2ccc3ccccc3c2)C1=O (stereo not given) [3,5-dimethyl-4-hydroxy-5-(naphthalen-2-ylmethyl)-5H-thiophen-2-one] | < 3.00 | < 3.00 | < 4.00 | < 3.00 |
| CCCCCCCCCC1(C)SC(=O)C(C)C1=O (stereo not given) [3,5-dimethyl-4-hydroxy-5-nonyl-5H-thiophen-2-one] | < 4.00 | < 3.00 | < 4.00 | < 3.00 |
| C=CCCCCCCC1(C)SC(=O)C(C)C1=O (stereo not given) [3,5-dimethyl-4-hydroxy-5-oct-7-enyl-5H-thiophen-2-one] | < 3.00 | < 3.00 | < 3.00 | < 3.00 |

| Compound | pIC50 [1] | pIC50 [2] | pIC50 [3] | pIC50 [4] |
| --- | --- | --- | --- | --- |
| CC1C(=O)SC(C)(CCc2ccccc2)C1=O (stereo not given) [3,5-dimethyl-4-hydroxy-5-phenethyl-5H-thiophen-2-one] | < 3.00 | < 3.00 | < 3.00 | < 3.00 |
| CCCCCCCCCCCCCCC1(C)SC(=O)C(C)C1=O (stereo not given) [3,5-dimethyl-4-hydroxy-5-tetradecyl-5H-thiophen-2-one] | 4.00 |  | 4.10 | < 4.00 |
| CCCCCCCCCCCCCC1(C)SC(=O)C(C)C1=O (stereo not given) [3,5-dimethyl-4-hydroxy-5-tridecyl-5H-thiophen-2-one] | 4.00 |  | 4.10 | < 4.00 |
| CCCCCCCCCCCC1(C)SC(=O)C(C)C1=O (stereo not given) [3,5-dimethyl-4-hydroxy-5-undecyl-5H-thiophen-2-one] | < 4.00 | < 3.00 |  | < 3.00 |
| Cc1ccc(C)c(CC2(C)SC(=O)C(C)C2=O)c1 (stereo not given) [3,5-dimethyl-5-(2,5-dimethylbenzyl)-4-hydroxy-5H-thiophen-2-one] | < 3.00 | < 3.00 | < 3.00 | < 3.00 |
| CCCCC(CC)CC1(C)SC(=O)C(C)C1=O (stereo not given) [3,5-dimethyl-5-(2-ethylhexyl)-4-hydroxy-5H-thiophen-2-one] | < 3.00 | < 3.00 | < 3.00 | < 3.00 |
| COc1cc(CC2(C)SC(=O)C(C)C2=O)cc(OC)c1 (stereo not given) [3,5-dimethyl-5-(3,5-dimethoxybenzyl)-4-hydroxy-5H-thiophen-2-one] | < 3.00 | < 3.00 | < 3.00 | < 3.00 |
| CC1C(=O)SC(C)(Cc2ccc(F)cc2)C1=O (stereo not given) [3,5-dimethyl-5-(4-fluorobenzyl)-4-hydroxy-5H-thiophen-2-one] | < 3.00 | < 3.00 | < 4.00 | < 3.00 |
| CCCCCCCC1(C)SC(=O)C(C)C1=O (stereo not given) [3,5-dimethyl-5-heptyl-4-hydroxy-5H-thiophen-2-one] | < 3.00 | < 3.00 | < 3.00 | < 3.00 |
| CCCCCCCCC1(C)SC(=O)C(C)C1=O (stereo not given) [4-Hydroxy-3,5-dimethyl-5-octyl-5H-thiophen-2-one] | < 4.00 |  | < 4.00 |  |
| COc1cccc(CC2(C)SC(=O)C(C)C2=O)c1 (stereo not given) [4-Hydroxy-5-(3-methoxy-benzyl)-3,5-dimethyl-5H-thiophen-2-one] | < 3.00 | < 3.00 | < 3.00 | < 3.00 |
| CC1C(=O)SC(C)(Cc2ccc(Cl)cc2Cl)C1=O (stereo not given) [5-(2,4-dichlorobenzyl)-3,5-dimethyl-4-hydroxy-5H-thiophen-2-one] |  |  | < 4.00 |  |
| CC1C(=O)SC(C)(Cc2ccc(Cl)c(Cl)c2)C1=O (stereo not given) [5-(3,4-dichlorobenzyl)-3,5-dimethyl-4-hydroxy-5H-thiophen-2-one] | < 4.00 |  | < 4.00 |  |
| CC(C)=CCC/C(C)=C/CC1(C)SC(=O)C(C)C1=O (stereo not given) [5-((E)-3,7-Dimethyl-octa-2,6-dienyl)-4-hydroxy-3,5-dimethyl-5H-thiophen-2-one] | 4.00 |  |  |  |
| CCCCCCCCCCC1(C)SC(=O)C(C)C1=O (stereo not given) [5-Decyl-4-hydroxy-3,5-dimethyl-5H-thiophen-2-one] | 4.00 |  | < 4.00 |  |
| CC1C(=O)SC(C)(C2CCCCC2)C1=O (stereo not given) [5-cyclohexyl-3,5-dimethyl-4-hydroxy-5H-thiophen-2-one] |  |  | < 4.00 |  |
| CC1C(=O)SC(C)(CC2CC2)C1=O (stereo not given) [5-cyclopropylmethyl-3,5-dimethyl-4-hydroxy-5H-thiophen-2-one] | < 4.00 |  |  |  |
